Measured values published in patent US9227949B2, “Heteroarylcarboxylic acid ester derivative” (AJINOMOTO CO., INC., priority 2012, dated 2016).

Key:
[1] = target: recombinant human enteropeptidase (Homo sapiens (Human), UniProt P98073); experiment: Measurement of enteropeptidase inhibitory activity; type: biochemical; details: substrate Gly-Asp-Asp-Asp-Asp-Lys-β-Naphtylamide, Tris-HCl pH 8.0, Dixon plot
Experimental: Using a 96 well plate (#3915, Costar), a test compound (25 μL), 400 mM Tris-HCl buffer (pH 8.0, 25 μL) and 0.5 mg/mL, fluorescence enzyme substrate (Gly-Asp-Asp-Asp-Asp-Lys-β-Naphtylamide, 25 μL) were mixed, and recombinant human enteropeptidase (R&D Systems, Inc., 25 μL) was added. Using a fluorescence plate reader fmax (Molecular Devices, Inc.), the reaction rate was measured from the time-course changes at excitation wavelength 320 nm and fluorescence wavelength 405 nm. The Ki value was calculated from the concentration of the test compound, reciprocal of reaction rate, and Km value of the enzyme substrate, and by using Dixon plot.

human trypsin [2] = target: human trypsin (Homo sapiens, UniProt P07477); experiment: Measurement of trypsin inhibitory activity; type: biochemical; details: substrate Boc-Phe-Ser-Arg-AMC, Tris-HCl pH 8.0, Dixon plot
Experimental: (§1) Using a 96 well plate (#3915, Costar), a test compound (25 μL) was mixed with 20 μM fluorescence enzyme substrate (Boc-Phe-Ser-Arg-AMC, 50 μL) mixed with 200 mM Tris-HCl buffer (pH 8.0), and human trypsin (Sigma, 25 μL) was added. Using a fluorescence plate reader fmax (Molecular Devices, Inc.), the reaction rate was measured from the time-course changes at excitation wavelength 355 nm and fluorescence wavelength 460 nm. The Ki value was calculated from the concentration of the test compound, reciprocal of reaction rate, and Km value of the enzyme substrate, and by using Dixon plot.

Zucker Fatty rats = experiment: Evaluation of hypoglycemic action (blood glucose levels after oral gavage); type: in vivo; details: gavage 3 mg/kg, HCl salt form, 2 or 4 hours after dosing, free access to feed
Experimental: Zucker Fatty rats (male, 11-19 week-old, Charles River Japan, Inc.) known to spontaneously develop hyperglycemia were randomly assigned to the groups (6 per group). The animals were individually housed in a polycarbonate cage and allowed to drink water freely from a watering bottle. The animals in the compound groups were gavaged with compound No. 10, 87, 19, or 69 at the dose of 3 mg/kg. These compounds were used as HCl salt form thereof, converted by the method according to Example 3, step 6 from TFA salt form thereof upon the necessity. The animals in the control group were only treated with the vehicle (0.5% methylcellulose). Animals were allowed free access to the feed (CRF-1, Oriental Yeast Co., Ltd.) during the experiment. An aspirate of the blood (6 μL) was collected from the tail vein on the time point of immediately before dosing (time 0) as well as 2, 4, and 8 hours after dosing. The blood glucose levels were determined with ACCU-CHEK Aviva (Roche Diagnostics K.K.).

human trypsin [3] = experiment: Measurement of trypsin inhibitory activity; type: biochemical; details: substrate Boc-Phe-Ser-Arg-AMC, Tris-HCl pH 8.0, Dixon plot
Experimental: as §1

Sequence of recombinant human enteropeptidase (P98073 whole entry): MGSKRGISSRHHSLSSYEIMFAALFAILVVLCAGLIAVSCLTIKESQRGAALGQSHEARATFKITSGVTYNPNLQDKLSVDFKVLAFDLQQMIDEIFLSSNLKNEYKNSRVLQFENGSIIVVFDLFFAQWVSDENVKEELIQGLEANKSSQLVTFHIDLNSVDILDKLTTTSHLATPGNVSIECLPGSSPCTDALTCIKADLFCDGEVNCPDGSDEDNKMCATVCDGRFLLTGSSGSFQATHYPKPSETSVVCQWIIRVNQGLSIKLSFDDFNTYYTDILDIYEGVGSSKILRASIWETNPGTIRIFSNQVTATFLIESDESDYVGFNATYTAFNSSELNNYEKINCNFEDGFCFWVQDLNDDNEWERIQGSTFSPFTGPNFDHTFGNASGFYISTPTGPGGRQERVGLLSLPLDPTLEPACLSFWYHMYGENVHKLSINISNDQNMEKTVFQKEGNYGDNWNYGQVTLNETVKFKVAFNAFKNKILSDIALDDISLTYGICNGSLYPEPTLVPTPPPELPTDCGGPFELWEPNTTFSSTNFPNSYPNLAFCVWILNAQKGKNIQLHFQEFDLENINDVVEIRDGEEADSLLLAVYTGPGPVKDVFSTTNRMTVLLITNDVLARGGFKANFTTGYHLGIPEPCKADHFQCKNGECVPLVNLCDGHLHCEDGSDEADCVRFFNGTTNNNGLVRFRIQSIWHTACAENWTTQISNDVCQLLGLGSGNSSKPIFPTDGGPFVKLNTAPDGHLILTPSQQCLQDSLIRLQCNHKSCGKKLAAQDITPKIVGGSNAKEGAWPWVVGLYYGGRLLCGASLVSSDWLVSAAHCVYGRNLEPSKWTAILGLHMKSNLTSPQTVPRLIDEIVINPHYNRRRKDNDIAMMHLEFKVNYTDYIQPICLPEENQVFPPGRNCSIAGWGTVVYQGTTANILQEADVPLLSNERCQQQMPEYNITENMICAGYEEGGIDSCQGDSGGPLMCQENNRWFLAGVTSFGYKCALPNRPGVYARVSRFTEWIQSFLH

Ki [1] [nM]	Ki (human trypsin [2]) [nM]	Ki (human trypsin [3]) [nM]	Compound	blood glucose levels compared with vehicle group (Zucker Fatty rats)
1	2.87	–	CCC(CC)(Cc1ccc(C(=O)Oc2ccc(C(=N)N)cc2F)s1)C(=O)N1CC(C(=O)O)C1 [Compound 88]	–
0.55	1.7	–	CCC(CC)(Cc1ccc(C(=O)Oc2ccc(C(=N)N)cc2F)s1)C(=O)Nc1ccc(C(=O)O)c(C(=O)O)c1 [Compound 90]	–
0.72	–	1.42	CCC(CC)(Cc1ccc(C(=O)Oc2ccc(C(=N)N)cc2F)s1)C(=O)NCC(=O)O [Compound 83]	–
0.9	1.33	–	CC(C)(Cc1ccc(C(=O)Oc2ccc(C(=N)N)cc2F)s1)C(=O)N1CC[C@H](C(=O)O)C1 [Compound 91]	–
0.3	–	0.9	CC(C)(Cc1ccc(C(=O)Oc2ccc(C(=N)N)cc2F)s1)C(=O)N1C[C@H](O)C[C@H]1C(=O)O [Compound 93]	–

Continued, molecule first:

Compound	Ki [1] [nM]	Ki (human trypsin [2]) [nM]	Ki (human trypsin [3]) [nM]	blood glucose levels compared with vehicle group (Zucker Fatty rats)
CCC(CC)(Cc1ccc(C(=O)Oc2ccc(C(=N)N)cc2F)s1)C(=O)Nc1ccc(O)c(C(=O)O)c1 [Compound 82]	3.52	5.32	–	–
CCC(CC)(Cc1ccc(C(=O)Oc2ccc(C(=N)N)cc2F)s1)C(=O)N[C@@H](Cc1nn[nH]n1)C(=O)O [Compound 86]	0.24	3.4	–	–
CC(C)(Cc1ccc(C(=O)Oc2ccc(C(=N)N)cc2F)s1)C(=O)O.O=C(O)C(F)(F)F [Compound 87]	0.39	1.3	–	significantly decreased
CC(C)(Cc1ccc(C(=O)Oc2ccc(C(=N)N)cc2F)s1)C(=O)Nc1cc(O)cc(C(=O)O)c1 [Compound 74]	0.58	0.18	–	–
CCC(CC)(Cc1ccc(C(=O)Oc2ccc(C(=N)N)cc2F)s1)C(=O)Nc1cccc(S(=O)(=O)O)c1 [Compound 89]	0.84	–	1.17	–
CC(C)(Cc1ccc(C(=O)Oc2ccc(C(=N)N)cc2F)s1)C(=O)N[C@H]1CC=CC[C@H]1C(=O)O [Compound 94]	1.3	–	1.98	–
CCC(CC)(Cc1ccc(C(=O)Oc2ccc(C(=N)N)cc2F)s1)C(=O)N[C@@H](CCC(=O)O)c1nnn[nH]1 [Compound 84]	0.43	–	3.27	–
CC(C)(Cc1ccc(C(=O)Oc2ccc(C(=N)N)cc2F)s1)C(=O)N[C@@H](C(=O)O)c1ccc(O)cc1.O=C(O)C(F)(F)F [Compound 69]	–	–	–	significantly decreased
CC(C)(Cc1ccc(C(=O)Oc2ccc(C(=N)N)cc2F)s1)C(=O)N[C@H](C(=O)O)c1ccc(O)cc1 [Compound 92]	0.67	–	0.96	–
CC(C)(Cc1ccc(C(=O)Oc2ccc(C(=N)N)cc2F)s1)C(=O)N[C@H]1CCC[C@@H](C(=O)O)C1 [Compound 85]	0.81	0.69	–	–
CCCN(CC(=O)O)C(=O)C(C)(C)Cc1ccc(C(=O)Oc2ccc(C(=N)N)cc2F)s1.Cl [Compound 10, N-{3-[5-(4-amidino-2-fluorophenoxycarbonyl)thiophen-2-yl]-2,2-dimethylpropionyl}-N-propylglycine hydrochloride]	–	–	–	significantly decreased
CCC(CC)(Cc1ccc(C(=O)Oc2ccc(C(=N)N)cc2F)s1)C(=O)N[C@@H](CC(=O)O)C(=O)O.Cl [Compound 19]	–	–	–	significantly decreased
